Patent publication US4416884A, “Piperazinylbenzoheterocyclic compounds” (Otsuka Pharmaceutical Co., Ltd., priority 1978, dated 1983)
Values after ≈ are worked out from the molar mass of the structure shown. Read-outs that look alike come from different tables or passages of the source.

Legend:
Assay in all cases: antimicrobial activity, serial dilution method on agar plate
Type in all cases: cell-based
[1] = test system: Escherichia Coli NIHJ JC-2 (IFO 12734); settings: Escherichia coli, read-out: Minimum Inhibitory Concentration
Protocol: (§1) The antimicrobial activity of the following test compounds on various test organisms listed below was determined by the serial dilution method on agar plate (Heart Infusion agar produced by Difco Co.) (see CHEMOTHERAPY 22, pp. 1126-1128 (1974)), and the minimum inhibitory concentrations (mcg/ml) obtained are shown in Table 1 below.
(§2) A sample of each test organism was prepared so that the population of the organism was 1×10^8 cells/ml (O.D. 660 mμ=0.07 to 0.16) and 1×10^6 cells/ml (which was obtained by diluting the above 1×10^8 cells/ml preparation).

Klebsiella pneumoniae = test system: Klebsiella pneumoniae
Protocol: as §1, §2

Proteus rettgeri NIH 96 = settings: Providencia rettgeri
Protocol: as §1, §2

[2] = test system: Pseudomonas aeruginosa ATCC 10145
Protocol: as §1, §2

[3] = test system: Pseudomonas aeruginosa E-2
Protocol: as §1, §2

[4] = test system: Pseudomonas aeruginosa NCTC 10490
Protocol: as §1, §2

[5] = test system: Salmonella typhi 0-901 (NCTC 8393); settings: Salmonella enterica
Protocol: as §1, §2

[6] = test system: Serattia marcescens IFO 12648
Protocol: as §1, §2

Shigella Sonnei EW 33 = settings: read-out: Minimum Inhibitory Concentration
Protocol: as §1, §2

[7] = test system: Staphylococcus aureus FDA 209 P
Protocol: as §1, §2

[8] = test system: Streptococcus pyogenes IID S-23
Protocol: as §1, §2

[9] = inoculum 1 × 10^8 cells/ml, read-out: Minimum Inhibitory Concentration
[10] = NIH96, inoculum 1 × 10^8 cells/ml, read-out: Minimum Inhibitory Concentration
[11] = ATCC10145, inoculum 1 × 10^8 cells/ml, read-out: Minimum Inhibitory Concentration
[12] = E2, inoculum 1 × 10^8 cells/ml, read-out: Minimum Inhibitory Concentration
[13] = NCTC10490, inoculum 1 × 10^8 cells/ml, read-out: Minimum Inhibitory Concentration
[14] = read-out: Minimum Inhibitory Concentration, inoculum 1 × 10^8 cells/ml
[15] = FDA209, inoculum 1 × 10^8 cells/ml, read-out: Minimum Inhibitory Concentration
[16] = IIDS23, read-out: Minimum Inhibitory Concentration, inoculum 1 × 10^8 cells/ml
[17] = inoculum 1 × 10^6 cells/ml, read-out: Minimum Inhibitory Concentration
[18] = NIH96, inoculum 1 × 10^6 cells/ml, read-out: Minimum Inhibitory Concentration
[19] = ATCC10145, inoculum 1 × 10^6 cells/ml, read-out: Minimum Inhibitory Concentration
[20] = E2, inoculum 1 × 10^6 cells/ml, read-out: Minimum Inhibitory Concentration
[21] = NCTC10490, inoculum 1 × 10^6 cells/ml, read-out: Minimum Inhibitory Concentration
[22] = read-out: Minimum Inhibitory Concentration, inoculum 1 × 10^6 cells/ml
[23] = FDA209, inoculum 1 × 10^6 cells/ml, read-out: Minimum Inhibitory Concentration
[24] = IIDS23, inoculum 1 × 10^6 cells/ml, read-out: Minimum Inhibitory Concentration
[25] = IIDS23, inoculum 1 × 10^8 cells/ml, read-out: Minimum Inhibitory Concentration

| SMILES | MIC (Klebsiella pneumoniae; [9]) | MIC (Proteus rettgeri NIH 96; [10]) | MIC [2, 11] | MIC [3, 12] | MIC [4, 13] | MIC [5, 14] | MIC [6, 9] | MIC (Shigella Sonnei EW 33; inoculum 1 × 10^8 cells/ml) | MIC [7, 15] | MIC ([1]; inoculum 1 × 10^6 cells/ml) | MIC ([1]; inoculum 1 × 10^8 cells/ml) | MIC (Klebsiella pneumoniae; [17]) | MIC (Proteus rettgeri NIH 96; [18]) | MIC [2, 19] | MIC [3, 20] | MIC [4, 21] | MIC [5, 22] | MIC [6, 17] | MIC (Shigella Sonnei EW 33; inoculum 1 × 10^6 cells/ml) | MIC [8, 25] | also measured |
| --- | --- | --- | --- | --- | --- | --- | --- | --- | --- | --- | --- | --- | --- | --- | --- | --- | --- | --- | --- | --- | --- |
| C#CCN1CCN(c2c(Cl)cc3c(=O)c(C(=O)O)cn4c3c2CCC4C)CC1 (stereo not shown) [i] | 0.78 µg/mL (≈ 1.95 µM) | 0.2 µg/mL (≈ 0.5 µM) | 12.5 µg/mL (≈ 31.3 µM) | 25 µg/mL (≈ 62.5 µM) | 12.5 µg/mL (≈ 31.3 µM) | 0.78 µg/mL (≈ 1.95 µM) | 0.78 µg/mL (≈ 1.95 µM) | 1.56 µg/mL (≈ 3.9 µM) | 0.39 µg/mL (≈ 0.975 µM) |  |  |  |  |  |  |  |  |  |  |  | MIC [1]: 1.56 µg/mL (≈ 3.9 µM); MIC [8, 16]: 1.56 µg/mL (≈ 3.9 µM) |
| CC1Cc2c(N3CCN(C)CC3)c(F)cc3c(=O)c(C(=O)O)cn1c23 (stereo not shown) [a] | 0.2 µg/mL (≈ 0.579 µM) | 0.2 µg/mL (≈ 0.579 µM) | 1.6 µg/mL (≈ 4.63 µM) | 1.6 µg/mL (≈ 4.63 µM) | 1.6 µg/mL (≈ 4.63 µM) | ≤ 0.05 µg/mL | 0.2 µg/mL (≈ 0.579 µM) | 0.1 µg/mL (≈ 0.29 µM) | 0.8 µg/mL (≈ 2.32 µM) | 0.1 µg/mL (≈ 0.29 µM) | 0.1 µg/mL (≈ 0.29 µM) | 0.2 µg/mL (≈ 0.579 µM) | 0.1 µg/mL (≈ 0.29 µM) | 1.6 µg/mL (≈ 4.63 µM) | 1.6 µg/mL (≈ 4.63 µM) | 1.6 µg/mL (≈ 4.63 µM) | ≤ 0.05 µg/mL | 0.2 µg/mL (≈ 0.579 µM) | 0.1 µg/mL (≈ 0.29 µM) | 6.3 µg/mL (≈ 18.2 µM) | MIC [7, 23]: 0.4 µg/mL (≈ 1.16 µM); MIC [8, 24]: 3.1 µg/mL (≈ 8.98 µM) |
| CC1CCc2c(N3CCN(C(=O)C(F)(F)C(F)(F)C(F)(F)F)CC3)c(Cl)cc3c(=O)c(C(=O)O)cn1c23 (stereo not shown) [e] |  |  |  |  |  |  |  | 0.78 µg/mL (≈ 1.4 µM) |  |  |  |  |  |  |  |  |  |  |  |  | MIC [1]: 0.39 µg/mL (≈ 0.699 µM); MIC (Klebsiella pneumoniae; [14]): 0.39 µg/mL (≈ 0.699 µM); MIC (Proteus rettgeri NIH 96; NIH96, read-out: Minimum Inhibitory Concentration, inoculum 1 × 10^8 cells/ml): 0.2 µg/mL (≈ 0.359 µM); MIC ([2]; ATCC10145, read-out: Minimum Inhibitory Concentration, inoculum 1 × 10^8 cells/ml): 1.56 µg/mL (≈ 2.8 µM); MIC ([3]; E2, read-out: Minimum Inhibitory Concentration, inoculum 1 × 10^8 cells/ml): 6.25 µg/mL (≈ 11.2 µM); MIC ([4]; NCTC10490, read-out: Minimum Inhibitory Concentration, inoculum 1 × 10^8 cells/ml): 3.13 µg/mL (≈ 5.61 µM); MIC [5, 9]: 0.2 µg/mL (≈ 0.359 µM); MIC [6, 14]: 0.2 µg/mL (≈ 0.359 µM); MIC ([7]; FDA209, read-out: Minimum Inhibitory Concentration, inoculum 1 × 10^8 cells/ml): 3.13 µg/mL (≈ 5.61 µM); MIC [8, 16]: 6.25 µg/mL (≈ 11.2 µM) |
| CS(=O)(=O)N1CCN(c2ccc3c(=O)c(C(=O)O)cn4c3c2CCC4)CC1 [Compound O, 8-(4-Methanesulfonyl-1-piperazinyl)-6,7-dihydro-1-oxo-1H,5H--benzo[ij]quinolizine-2-carboxylic acid] | 6.3 µg/mL (≈ 16.1 µM) | 6.3 µg/mL (≈ 16.1 µM) | 100 µg/mL (≈ 255 µM) | 100 µg/mL (≈ 255 µM) | 25 µg/mL (≈ 63.9 µM) | 1.6 µg/mL (≈ 4.09 µM) | 12.5 µg/mL (≈ 31.9 µM) | 6.3 µg/mL (≈ 16.1 µM) | 3.1 µg/mL (≈ 7.92 µM) |  | 6.3 µg/mL (≈ 16.1 µM) |  |  |  |  |  |  |  |  |  |  |
| CC1CCc2c(N3CCN(C=O)CC3)c(Cl)cc3c(=O)c(C(=O)O)cn1c23 (stereo not shown) [Compound V, 8-(4-Formyl-1-piperazinyl)-9-chloro-5-methyl-6,7-dihydro-1-oxo-1H,5H--benzo[ij]-quinolizine-2-carboxylic acid] | 0.8 µg/mL (≈ 2.05 µM) | 0.8 µg/mL (≈ 2.05 µM) | 12.5 µg/mL (≈ 32.1 µM) | 12.5 µg/mL (≈ 32.1 µM) | 3.1 µg/mL (≈ 7.95 µM) | 0.2 µg/mL (≈ 0.513 µM) | 3.1 µg/mL (≈ 7.95 µM) | 0.8 µg/mL (≈ 2.05 µM) | 0.2 µg/mL (≈ 0.513 µM) | 0.8 µg/mL (≈ 2.05 µM) | 0.8 µg/mL (≈ 2.05 µM) | 0.8 µg/mL (≈ 2.05 µM) | 0.8 µg/mL (≈ 2.05 µM) | 12.5 µg/mL (≈ 32.1 µM) | 6.3 µg/mL (≈ 16.2 µM) | 1.6 µg/mL (≈ 4.1 µM) | 0.2 µg/mL (≈ 0.513 µM) | 3.1 µg/mL (≈ 7.95 µM) | 0.4 µg/mL (≈ 1.03 µM) | 3.1 µg/mL (≈ 7.95 µM) | MIC [7, 23]: 0.2 µg/mL (≈ 0.513 µM); MIC [8, 24]: 1.6 µg/mL (≈ 4.1 µM) |
| CC1CCc2c(N3CCN(C(=O)C(F)(F)C(F)(F)F)CC3)c(Cl)cc3c(=O)c(C(=O)O)cn1c23 (stereo not shown) [d] | 0.39 µg/mL (≈ 0.768 µM) | 0.2 µg/mL (≈ 0.394 µM) | 1.56 µg/mL (≈ 3.07 µM) | 6.25 µg/mL (≈ 12.3 µM) | 3.13 µg/mL (≈ 6.16 µM) | 0.1 µg/mL (≈ 0.197 µM) | 0.2 µg/mL (≈ 0.394 µM) | 0.78 µg/mL (≈ 1.54 µM) | 1.56 µg/mL (≈ 3.07 µM) |  | 0.39 µg/mL (≈ 0.768 µM) |  |  |  |  |  |  |  |  | 12.5 µg/mL (≈ 24.6 µM) |  |
| CC1CCc2c(N3CCN(C)CC3)c(F)cc3c(=O)c(C(=O)O)cn1c23 (stereo not shown) [Compound W, 8-(4-Methyl-1-piperazinyl)-9-fluoro-5-methyl-6,7-dihydro-1-oxo-1H,5H--benzo[ij]-quinolizine-2-carboxylic acid] | 0.4 µg/mL (≈ 1.11 µM) | 0.4 µg/mL (≈ 1.11 µM) | 3.1 µg/mL (≈ 8.63 µM) | 6.3 µg/mL (≈ 17.5 µM) | 1.6 µg/mL (≈ 4.45 µM) | 0.1 µg/mL (≈ 0.278 µM) | 0.4 µg/mL (≈ 1.11 µM) | 0.2 µg/mL (≈ 0.556 µM) | 0.4 µg/mL (≈ 1.11 µM) | 0.4 µg/mL (≈ 1.11 µM) | 0.4 µg/mL (≈ 1.11 µM) | 0.2 µg/mL (≈ 0.556 µM) | 0.4 µg/mL (≈ 1.11 µM) | 1.6 µg/mL (≈ 4.45 µM) | 3.1 µg/mL (≈ 8.63 µM) | 1.6 µg/mL (≈ 4.45 µM) | ≤ 0.05 µg/mL | 0.4 µg/mL (≈ 1.11 µM) | 0.2 µg/mL (≈ 0.556 µM) | 1.6 µg/mL (≈ 4.45 µM) | MIC [7, 23]: 0.4 µg/mL (≈ 1.11 µM); MIC [8, 24]: 1.6 µg/mL (≈ 4.45 µM) |
